Measured values as given in ChEMBL document CHEMBL2163239, “Inhibitors of human immunodeficiency virus type 1 (HIV-1) attachment 6. Preclinical and human pharmacokinetic profiling of BMS-663749, a phosphonooxymethyl prodrug of the HIV-1 attachment inhibitor 2-(4-benzoyl-1-piperazinyl)-1-(4,7-dimethoxy-1H-pyrrolo[2,3-c]pyridin-3-yl)-2-oxoethanone …” (J Med Chem, 2012).

Assays:
[1] = Tmax in healthy human at 200 mg, po administered with high fat meal; format: ADME, organism-based; conditions: in vivo
[2] = Cmax in healthy human at 400 mg, po administered with high fat meal; format: ADME, organism-based; parameters: dose 400 mg, route oral; conditions: in vivo
[3] = Tmax in healthy human at 800 mg, po administered with high fat meal; format: ADME, organism-based; conditions: in vivo
[4] = Cmax in healthy human at 800 mg, po administered with high fat meal; format: ADME, organism-based; parameters: dose 800 mg, route oral; conditions: in vivo
[5] = tested on: Rattus norvegicus; assay: AUC (total) in Sprague-Dawley rat assessed as BMS-488043 level at 7.9 mg/kg, po; format: ADME, organism-based, Plasma; parameters: dose 7.9 mg/kg, route oral; conditions: in vivo
[6] = tested on: Cynomolgus monkey; assay: AUC (total) in cynomolgus monkey assessed as BMS-488043 level at 7.1 mg/kg, po; format: ADME, organism-based, Macaca fascicularis, Plasma; parameters: dose 7.1 mg/kg, route oral; conditions: in vivo
[7] = tested on: Rattus norvegicus; assay: Cmax in Sprague-Dawley rat assessed as BMS-488043 level at 7.9 mg/kg, po; format: ADME, organism-based; parameters: dose 7.9 mg/kg, route oral; conditions: in vivo
[8] = Half life in cynomolgus monkey at 1.3 mg/kg, iv; format: ADME, organism-based, Macaca fascicularis; parameters: dose 1.3 mg/kg, route intravenous; conditions: in vivo
[9] = Mean residence time in Sprague-Dawley rat at 1.4 mg/kg, iv; format: ADME, organism-based; parameters: dose 1.4 mg/kg, route intravenous; conditions: in vivo
[10] = Dissociation constant, pKa of compound; format: physicochemical
[11] = Aqueous solubility of compound at pH 1.4 after 18 to 24 hrs by RP-HPLC analysis; format: physicochemical
[12] = Half life in healthy human at 50 mg, po administered with high fat meal; format: ADME, organism-based; conditions: in vivo
[13] = Cmax in healthy human at 50 mg, po administered with high fat meal; format: ADME, organism-based; parameters: dose 50 mg, route oral; conditions: in vivo
[14] = tested on: Rattus norvegicus; assay: Absolute oral bioavailability in Sprague-Dawley rat assessed as BMS-488043 level at 7.9 mg/kg; format: ADME, organism-based; conditions: in vivo
[15] = AUC (infinity) in healthy human at 400 mg, po administered with high fat meal; format: ADME, organism-based; parameters: dose 400 mg, time infinity, route oral; conditions: plasma
[16] = Volume of distribution at steady state in cynomolgus monkey at 1.3 mg/kg, iv; format: ADME, organism-based, Macaca fascicularis; parameters: dose 1.3 mg/kg, route intravenous; conditions: in vivo, read-out: Vdss
[17] = Clearance in Sprague-Dawley rat at 1.4 mg/kg, iv; format: ADME, organism-based; parameters: dose 1.4 mg/kg, route intravenous; conditions: in vivo
[18] = Tmax in healthy human at 50 mg, po administered with high fat meal; format: ADME, organism-based; conditions: in vivo
[19] = Aqueous solubility of compound at pH 5.4; format: physicochemical
[20] = Half life in healthy human at 800 mg, po administered with high fat meal; format: ADME, organism-based; conditions: in vivo
[21] = tested on: Canis familiaris; assay: Absolute oral bioavailability in beagle dog assessed as BMS-488043 level at 6.6 mg/kg; format: ADME, organism-based, Canis lupus familiaris; conditions: in vivo
[22] = tested on: Canis familiaris; assay: Cmax in beagle dog assessed as BMS-488043 level at 6.6 mg/kg, po; format: ADME, organism-based, Canis lupus familiaris; parameters: dose 6.6 mg/kg, route oral; conditions: in vivo
[23] = Plasma concentration in healthy human at 800 mg, po administered with high fat meal measured after 12 hrs; format: ADME, organism-based
[24] = Lipophilicity, log D of compound in octanol-PBS mixture at pH 6.5 by HPLC-UV analysis; format: physicochemical
[25] = Mean residence time in beagle dog at 1.2 mg/kg, iv; format: ADME, organism-based, Canis lupus familiaris; parameters: dose 1.2 mg/kg, route intravenous; conditions: in vivo
[26] = tested on: Plasma; assay: Plasma concentration in healthy human at 25 mg, po administered with high fat meal measured after 12 hrs; format: ADME, organism-based; conditions: in vivo, BLD = below limit of detection
[27] = Aqueous solubility of compound at pH 8.9; format: physicochemical
[28] = Half life in beagle dog at 1.2 mg/kg, iv; format: ADME, organism-based, Canis lupus familiaris; parameters: dose 1.2 mg/kg, route intravenous; conditions: in vivo
[29] = Tmax in healthy human at 25 mg, po administered with high fat meal; format: ADME, organism-based; conditions: in vivo
[30] = tested on: Cynomolgus monkey; assay: Half life in cynomolgus monkey assessed as BMS-488043 level at 7.1 mg/kg, po; format: ADME, organism-based, Macaca fascicularis; parameters: dose 7.1 mg/kg, route oral; conditions: in vivo
[31] = Clearance in cynomolgus monkey at 1.3 mg/kg, iv; format: ADME, organism-based, Macaca fascicularis; parameters: dose 1.3 mg/kg, route intravenous; conditions: in vivo
[32] = Clearance in beagle dog at 1.2 mg/kg, iv; format: ADME, organism-based, Canis lupus familiaris; parameters: dose 1.2 mg/kg, route intravenous; conditions: in vivo
[33] = tested on: Rattus norvegicus; assay: Half life in Sprague-Dawley rat assessed as BMS-488043 level at 7.9 mg/kg, po; format: ADME, organism-based; parameters: dose 7.9 mg/kg, route oral; conditions: in vivo
[34] = Tmax in healthy human at 400 mg, po administered with high fat meal; format: ADME, organism-based; conditions: in vivo
[35] = Half life in healthy human at 200 mg, po administered with high fat meal; format: ADME, organism-based; conditions: in vivo
[36] = AUC (infinity) in healthy human at 50 mg, po administered with high fat meal; format: ADME, organism-based; parameters: dose 50 mg, time infinity, route oral; conditions: plasma
[37] = Cmax in healthy human at 100 mg, po administered with high fat meal; format: ADME, organism-based; parameters: dose 100 mg, route oral; conditions: in vivo
[38] = AUC (infinity) in healthy human at 100 mg, po administered with high fat meal; format: ADME, organism-based; parameters: dose 100 mg, route oral, time infinity; conditions: plasma
[39] = tested on: Cynomolgus monkey; assay: Tmax in cynomolgus monkey assessed as BMS-488043 level at 7.1 mg/kg, po; format: ADME, organism-based, Macaca fascicularis; parameters: dose 7.1 mg/kg, route oral; conditions: in vivo
[40] = Cmax in healthy human at 200 mg, po administered with high fat meal; format: ADME, organism-based; parameters: dose 200 mg, route oral; conditions: in vivo
[41] = tested on: Canis familiaris; assay: Tmax in beagle dog assessed as BMS-488043 level at 6.6 mg/kg, po; format: ADME, organism-based, Canis lupus familiaris; parameters: dose 6.6 mg/kg, route oral; conditions: in vivo
[42] = Half life in healthy human at 100 mg, po administered with high fat meal; format: ADME, organism-based; conditions: in vivo
[43] = tested on: Cynomolgus monkey; assay: Cmax in cynomolgus monkey assessed as BMS-488043 level at 7.1 mg/kg, po; format: ADME, organism-based, Macaca fascicularis; parameters: dose 7.1 mg/kg, route oral; conditions: in vivo
[44] = Volume of distribution at steady state in beagle dog at 1.2 mg/kg, iv; format: ADME, organism-based, Canis lupus familiaris; parameters: dose 1.2 mg/kg, route intravenous; conditions: in vivo, read-out: Vdss
[45] = AUC (infinity) in healthy human at 800 mg, po administered with high fat meal; format: ADME, organism-based; parameters: dose 800 mg, time infinity, route oral; conditions: plasma
[46] = Half life in healthy human at 25 mg, po administered with high fat meal; format: ADME, organism-based; conditions: in vivo
[47] = Half life in healthy human at 400 mg, po administered with high fat meal; format: ADME, organism-based; conditions: in vivo
[48] = tested on: Canis familiaris; assay: Half life in beagle dog assessed as BMS-488043 level at 6.6 mg/kg, po; format: ADME, organism-based, Canis lupus familiaris; parameters: dose 6.6 mg/kg, route oral; conditions: in vivo
[49] = Plasma concentration in healthy human at 200 mg, po administered with high fat meal measured after 12 hrs; format: ADME, organism-based
[50] = tested on: Canis familiaris; assay: AUC (total) in beagle dog assessed as BMS-488043 level at 6.6 mg/kg, po; format: ADME, organism-based, Canis lupus familiaris, Plasma; parameters: dose 6.6 mg/kg, route oral; conditions: in vivo
[51] = AUC (infinity) in healthy human at 25 mg, po administered with high fat meal; format: ADME, organism-based; parameters: dose 25 mg, time infinity, route oral; conditions: plasma
[52] = Mean residence time in cynomolgus monkey at 1.3 mg/kg, iv; format: ADME, organism-based, Macaca fascicularis; parameters: dose 1.3 mg/kg, route intravenous; conditions: in vivo
[53] = Tmax in healthy human at 100 mg, po administered with high fat meal; format: ADME, organism-based; conditions: in vivo
[54] = tested on: Rattus norvegicus; assay: Tmax in Sprague-Dawley rat assessed as BMS-488043 level at 7.9 mg/kg, po; format: ADME, organism-based; parameters: dose 7.9 mg/kg, route oral; conditions: in vivo
[55] = Volume of distribution at steady state in Sprague-Dawley rat at 1.4 mg/kg, iv; format: ADME, organism-based; parameters: dose 1.4 mg/kg, route intravenous; conditions: in vivo, read-out: Vdss
[56] = Plasma concentration in healthy human at 100 mg, po administered with high fat meal measured after 12 hrs; format: ADME, organism-based
[57] = tested on: Cynomolgus monkey; assay: Absolute oral bioavailability in cynomolgus monkey assessed as BMS-488043 level at 7.1 mg/kg; format: ADME, organism-based, Macaca fascicularis; conditions: in vivo
[58] = AUC (infinity) in healthy human at 200 mg, po administered with high fat meal; format: ADME, organism-based; parameters: dose 200 mg, route oral, time infinity; conditions: plasma
[59] = Half life in Sprague-Dawley rat at 1.4 mg/kg, iv; format: ADME, organism-based; parameters: dose 1.4 mg/kg, route intravenous; conditions: in vivo
[60] = Plasma concentration in healthy human at 400 mg, po administered with high fat meal measured after 12 hrs; format: ADME, organism-based
[61] = Cmax in healthy human at 25 mg, po administered with high fat meal; format: ADME, organism-based; parameters: dose 25 mg, route oral; conditions: in vivo
[62] = tested on: Plasma; assay: Plasma concentration in healthy human at 50 mg, po administered with high fat meal measured after 12 hrs; format: ADME, organism-based; conditions: in vivo, BLD = below limit of detection

COc1cnc(OC)c2c1c(C(=O)C(=O)N1CCN(C(=O)c3ccccc3)CC1)cn2COP(=O)(O)O.NCCCC[C@H](N)C(=O)O
Tmax [1]: 30 min | Cmax [2]: 12900 ng/mL | Tmax [3]: 60 min | Cmax [4]: 26800 ng/mL | AUC [5]: 13.168 µM·h | AUC [6]: 34.183 µM·h | Cmax [7]: 3.94 µM | half-life [8]: 60 min | MRT [9]: 8.4 min | pKa [10]: 2.2 | solubility [11]: 220 µg/mL | half-life [12]: 84 min | Cmax [13]: 1370 ng/mL | F [14]: 62% | AUC(0-inf) [15]: 26200 ng·h/mL | Vd [16]: 0.048 L/kg | clearance [17]: 14 mL/min/kg | Tmax [18]: 30 min | solubility [19]: > 12000 µg/mL | half-life [20]: 660 min | F [21]: 93% | Cmax [22]: 14 µM | concentration at 12 h [23]: 150 ng/mL | logD [24]: < -1 | MRT [25]: 4.2 min | Cp [26]: BLD | solubility [27]: > 12000 µg/mL | half-life [28]: 9 min | Tmax [29]: 30 min | t1/2 [30]: 288 min | clearance [31]: 4.4 mL/min/kg | clearance [32]: 70 mL/min/kg | t1/2 [33]: 90 min | Tmax [34]: 37.8 min | half-life [35]: 402 min | AUC(0-inf) [36]: 2150 ng·h/mL | Cmax [37]: 3650 ng/mL | AUC(0-inf) [38]: 5730 ng·h/mL | Tmax [39]: 49.8 min | Cmax [40]: 8420 ng/mL | Tmax [41]: 15 min | half-life [42]: 114 min | Cmax [43]: 16.4 µM | Vd [44]: 0.3 L/kg | AUC(0-inf) [45]: 64100 ng·h/mL | half-life [46]: 60 min | half-life [47]: 780 min | t1/2 [48]: 246 min | concentration at 12 h [49]: 33 ng/mL | AUC [50]: 82.844 µM·h | AUC(0-inf) [51]: 1160 ng·h/mL | MRT [52]: 10.8 min | Tmax [53]: 30 min | Tmax [54]: 49.8 min | Vd [55]: 0.12 L/kg | concentration at 12 h [56]: 12 ng/mL | F [57]: 67% | AUC(0-inf) [58]: 14200 ng·h/mL | half-life [59]: 9.6 min | concentration at 12 h [60]: 59 ng/mL | Cmax [61]: 784 ng/mL | Cp [62]: BLD
